Source: US4870097A, “Pharmaceutical use of derivatives of tryptophan” (priority 1984, dated 1989)
“Also recorded” adds a separate entry of the source.

How the values were obtained:
[1] = tested on: activity of analgesic drugs; experiment: Hot plate test: potentiation of analgesic drugs; type: in vivo, rats
Protocol: The method is that described by Eddy et al. (J. Pharmac. Exp. Ther. 107, 385 (1953)).
Groups of five male rats having a weight of about 150 g and which have not been fasting are used.
The animals are placed on a metal plate which is on the bottom of a transparent cylinder heated to 55°±1° C. by an azeotropic boiling mixture (1:1 acetone-ethyl formate). The time which passes between the moment at which the animal is placed on the hot plate and the moment at which it licks its feet or tries to jump out of the cylinder is defined as the reaction time. The control reaction time is measured 10 and 5 minutes before the administration of the drugs and 10, 20, 30, 45, 60, 90 minutes afterwards. The animals are left on the plate for a maximum period of 30 seconds.
The response to the administration of the product is considered positive if at least a doubling of the normal reaction time is seen. The results obtained are given in Table 2 which records the groups treated, the dose administered and the stay times on the plate expressed as the number of positive responses over the number treated.

[2] = tested on: endogenous opiates; experiment: Tail Flick Test after transcutaneous shock: analgesic activity of endogenous opiates; type: in vivo, rats; settings: for Average latency, 5': 5' after electric shock; for Average latency, 10': 10' after electric shock; for Average latency, 15': 15' after electric shock
Protocol: Influence of several of the compounds of the invention on the analgesic activity of endogenous opiates released under transcutaneous shock in rats measured by the Tail Flick Test
The method is that described by Lewis et al. (J. Neurosc. 1, 358 (1981). Male rats having a weight of about 200 g, which have not been fasting, are used.
The animals are stressed by the application to the front leg of a 60 Hz-2.5 mA current in pulses of a duration of one second every five seconds for 20 minutes.
This stress regime causes the release of endogenous opiates.

[3] = acetylsalicylic acid 100 + C. 26 5 mg/kg i.p.
[4] = acetylsalicylic acid 100 + C. 26 10 mg/kg i.p.
[5] = acetylsalicylic acid 100 + C. 26 20 mg/kg i.p.
[6] = propoxyphene 15 + C. 26 1 mg/kg i.p.
[7] = propoxyphene 15 + C. 26 2.5 mg/kg i.p.
[8] = propoxyphene 15 + C. 26 5.0 mg/kg i.p.
[9] = oxyphenylbutazone 50 + C. 33 5 mg/kg i.p.
[10] = oxyphenylbutazone 50 + C. 33 10 mg/kg i.p.
[11] = oxyphenylbutazone 50 + C. 33 20 mg/kg i.p.

CCCCCCc1ccc(C(=O)N[C@@H](Cc2c[nH]c3ccccc23)C(=O)O)cc1 [Compound 26]
Positive Total X/25 [1, 3]: 15 | positive responses over the number treated, 10' [1, 3]: 3/5 | positive responses over the number treated, 20' [1, 3]: 2/5 | positive responses over the number treated, 30' [1, 3]: 4/5 | positive responses over the number treated, 45' [1, 3]: 4/5 | positive responses over the number treated, 60' [1, 3]: 2/5 | Positive Total X/25 [1, 4]: 21 | positive responses over the number treated, 10' [1, 4]: 5/5 | positive responses over the number treated, 20' [1, 4]: 4/5 | positive responses over the number treated, 30' [1, 4]: 5/5 | positive responses over the number treated, 45' [1, 4]: 4/5 | positive responses over the number treated, 60' [1, 4]: 3/5 | Positive Total X/25 [1, 5]: 23 | positive responses over the number treated, 10' [1, 5]: 4/5 | positive responses over the number treated, 20' [1, 5]: 5/5 | positive responses over the number treated, 30' [1, 5]: 5/5 | positive responses over the number treated, 45' [1, 5]: 5/5 | positive responses over the number treated, 60' [1, 5]: 4/5 | Positive Total X/25 [1, 6]: 15 | positive responses over the number treated, 10' [1, 6]: 2/5 | positive responses over the number treated, 20' [1, 6]: 3/5 | positive responses over the number treated, 30' [1, 6]: 4/5 | positive responses over the number treated, 45' [1, 6]: 3/5 | positive responses over the number treated, 60' [1, 6]: 3/5 | Positive Total X/25 [1, 7]: 20 | positive responses over the number treated, 10' [1, 7]: 3/5 | positive responses over the number treated, 20' [1, 7]: 5/5 | positive responses over the number treated, 30' [1, 7]: 5/5 | positive responses over the number treated, 45' [1, 7]: 4/5 | positive responses over the number treated, 60' [1, 7]: 3/5 | Positive Total X/25 [1, 8]: 24 | positive responses over the number treated, 10' [1, 8]: 4/5 | positive responses over the number treated, 20' [1, 8]: 5/5 | positive responses over the number treated, 30' [1, 8]: 5/5 | positive responses over the number treated, 45' [1, 8]: 5/5 | positive responses over the number treated, 60' [1, 8]: 5/5 | analgesic activity of propoxyphene (in words) ([1]; with propoxyphene, 2.5 mg/kg i.p. (double), 5 mg/kg i.p. (maximum effect)): at least double the analgesic activity of propoxyphene; also recorded: a maximum effect | Average latency, 5' ([2]; 0.5 mg/kg i.v. + stress): 6.62 ± 0.72 s | Average latency, 5' ([2]; 2 mg/kg i.v. + stress): 11.0 ± 0.65 s | Average latency, 10' ([2]; 0.5 mg/kg i.v. + stress): 6.1 ± 0.61 sec. | Average latency, 10' ([2]; 2 mg/kg i.v. + stress): 9.28 ± 0.78 sec. | Average latency, 15' ([2]; 0.5 mg/kg i.v. + stress): 5.52 ± 0.9 s | Average latency, 15' ([2]; 2 mg/kg i.v. + stress): 6.84 ± 0.73 s

O=C(N[C@@H](Cc1c[nH]c2ccccc12)C(=O)O)OC(c1ccccc1)c1ccccc1 [Compound 33]
Positive Total X/25 [1, 9]: 17 | positive responses over the number treated, 10' [1, 9]: 3/5 | positive responses over the number treated, 20' [1, 9]: 3/5 | positive responses over the number treated, 30' [1, 9]: 4/5 | positive responses over the number treated, 45' [1, 9]: 4/5 | positive responses over the number treated, 60' [1, 9]: 3/5 | Positive Total X/25 [1, 10]: 21 | positive responses over the number treated, 10' [1, 10]: 3/5 | positive responses over the number treated, 20' [1, 10]: 5/5 | positive responses over the number treated, 30' [1, 10]: 5/5 | positive responses over the number treated, 45' [1, 10]: 5/5 | positive responses over the number treated, 60' [1, 10]: 3/5 | Positive Total X/25 [1, 11]: 22 | positive responses over the number treated, 10' [1, 11]: 4/5 | positive responses over the number treated, 20' [1, 11]: 5/5 | positive responses over the number treated, 30' [1, 11]: 5/5 | positive responses over the number treated, 45' [1, 11]: 4/5 | positive responses over the number treated, 60' [1, 11]: 4/5 | Average latency, 5' ([2]; 0.5 mg/kg i.v. + stress): 6.68 ± 0.53 s | Average latency, 5' ([2]; 2 mg/kg i.v. + stress): 9.92 ± 0.92 s | Average latency, 10' ([2]; 0.5 mg/kg i.v. + stress): 6.58 ± 0.46 sec. | Average latency, 10' ([2]; 2 mg/kg i.v. + stress): 8.1 ± 1.0 sec. | Average latency, 15' ([2]; 0.5 mg/kg i.v. + stress): 5.3 ± 0.56 s | Average latency, 15' ([2]; 2 mg/kg i.v. + stress): 6.51 ± 0.48 s
